The text below walks through data of patent EP0725068A1 (TOKYO TANABE COMPANY LIMITED, priority 1993, dated 1995).

In test [1] the target is T1, colonic 5-HT3 receptors (Cavia porcellus, UniProt O70212).
T1 construct: the distal colons (3-10 cm from the anus) were isolated and suspended in a Magnus tube filled with Krebs solution; from tissue; host or cells: isolated distal colon of male Hartley guinea pig
T1 sequence (O70212 20-490): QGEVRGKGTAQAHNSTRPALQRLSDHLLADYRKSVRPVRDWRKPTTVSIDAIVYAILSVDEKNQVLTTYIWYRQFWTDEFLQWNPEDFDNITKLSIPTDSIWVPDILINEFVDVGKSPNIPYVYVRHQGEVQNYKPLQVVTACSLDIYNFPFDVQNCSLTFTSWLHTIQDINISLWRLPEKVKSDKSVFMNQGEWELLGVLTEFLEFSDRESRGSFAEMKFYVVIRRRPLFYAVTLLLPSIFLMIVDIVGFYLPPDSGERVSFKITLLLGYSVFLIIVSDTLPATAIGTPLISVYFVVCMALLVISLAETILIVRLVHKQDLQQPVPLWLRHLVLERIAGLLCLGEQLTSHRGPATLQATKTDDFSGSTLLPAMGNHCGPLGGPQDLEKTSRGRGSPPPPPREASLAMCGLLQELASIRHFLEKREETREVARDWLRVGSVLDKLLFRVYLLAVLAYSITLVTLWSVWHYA
As to the kind of experiment: Colonic 5-HT3 receptor antagonism: inhibition of 2-methylserotonin-induced contraction of isolated distal colon (Test 1). The test is classed as biochemical, guinea pigs. The following applies: for M (×10^-9 Mole): molar antagonist concentration corresponding to pA2, guinea pig distal colon, 2-methylserotonin; for Kb: pA2, isolated guinea pig distal colon.

The subject of test [2] is restraint stress-induced diarrhea. The test can be described thus: Inhibiting effect on restraint stress-induced diarrhea, oral administration (Test 3). Format: in vivo, Wistar rats. Particulars: for No. of animals with diarrhea / No. of animals used: feces observed 5 hours; for inhibition at 0.01 mg/kg: Rattus norvegicus, po, 1 h, read-out: Inhibition rate. As to the method: This test was conducted following the method of Miyata, et al. (The Journal of Pharmacology and Experimental Therapeutics Vol.261, No.1, 297 (1992)). Nine to ten-week-old male Wistar rats starved overnight were placed in stress cages and their feces produced in 5 hours were observed. Of 15 rats, 14 developed diarrhea. The test compounds were administered orally one hour prior to placement in the stress cage, and the rate of inhibition on diarrhea was measured.

The target in test [3] is T2, cardiac 5-HT3 receptors (Rattus norvegicus, UniProt P35563).
T2 construct: from tissue; host or cells: whole anaesthetised male SD rat (in vivo)
T2 sequence (P35563 24-483): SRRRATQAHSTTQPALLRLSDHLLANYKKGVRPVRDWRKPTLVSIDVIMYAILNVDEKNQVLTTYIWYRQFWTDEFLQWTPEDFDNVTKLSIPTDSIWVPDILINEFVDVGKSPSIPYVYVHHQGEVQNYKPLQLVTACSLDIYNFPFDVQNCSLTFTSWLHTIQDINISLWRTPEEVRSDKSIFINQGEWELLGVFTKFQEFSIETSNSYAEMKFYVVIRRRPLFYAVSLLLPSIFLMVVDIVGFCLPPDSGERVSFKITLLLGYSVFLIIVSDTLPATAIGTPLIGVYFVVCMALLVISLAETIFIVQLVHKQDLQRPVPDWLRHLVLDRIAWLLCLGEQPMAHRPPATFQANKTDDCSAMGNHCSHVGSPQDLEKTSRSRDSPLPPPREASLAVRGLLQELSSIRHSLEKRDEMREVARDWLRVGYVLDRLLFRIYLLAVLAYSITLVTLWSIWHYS
The test can be described thus: Antagonism against von Bezold-Jarisch reflex (BJ reflex): serotonin-induced reflexive bradycardia (Test 2). Format: in vivo, SD rats. Particulars: for ED50: rat, intravenous, 5 minutes prior to 30 µg/kg serotonin i.v., anesthetized male SD rats, read-out: ID50 (the source's name). As to the method:
This test was conducted following the method of Fozard, at al. (Arch. Pharmacology, 326, 36-44, 1984). Male SD rats with a body weight of around 300 g were anesthetized by intraabdominal administration of 1.25 g/kg urethane, and an intravenous injection cannula was inserted in the right femoral vein while a sphygmomanometric cannula was inserted into the left femoral artery. The pulse was determined by measuring the electrocardiogram R waves (secondary induction) with an instantaneous pulse rate meter. After confirming satisfactory reproducibility of the reflexive bradycardia induced by intravenous administration of 30 µg/kg serotonin, the test compounds were intravenously administered 5 minutes prior to serotonin administration, the inhibition rates with respect to the initial values were found and the 50% inhibition doses (ID50) were calculated.

Test [4] has as its system stress-related diarrhea. Particulars: animal models; J. Pharmacol. Exp. Ther. 261, 297 (1992); cited from earlier work.
Setting [5] is: contraction induced by 2-methylserotonin.
Setting [6] is: 10μg/kg orally one hour prior to stress cage.

Structures can show the parent of a compound that is named as a salt. Where two headings read alike, the source gives them in different places.

As usually defined, the Kb is the affinity of an antagonist, worked out from how it opposes an agonist. Higher therefore signals lower antagonist affinity. As to `CN1C2CCC1CC(N1CCc3c(c4cccc5c4n3CCC5)C1=O)C2` (stereo not drawn) [H], the “M (×10^-9 Mole)” value in test [1] is reported as >10 ×10^-9 Mole. Also, the Kb in test [1] (setting [5]) was over 0.01 µM.
For orientation: inhibition means the drop in the measured response relative to a control, in per cent. On to `Cc1[nH]cnc1CN1CCc2c(c3cccc4c3n2CCC4)C1=O` [A, 5,6,9,10-tetrahydro-10-[(5-methyl-1H-imidazol-4-yl)methyl]-4H-pyrido[3',4':4,5]pyrrolo[3,2,1-ij] quinolin-11(8H)-one], for which the “No. of animals with diarrhea / No. of animals used” value in test [2] (setting [6]) is 8/10. Further, in test [2], the inhibition at 0.01 mg/kg was 20%. In addition, in test [1], the “M (×10^-9 Mole)” value was 10 ×10^-9 Mole. In test [1] (setting [5]), this molecule gave an antagonist equilibrium constant (Kb) of 0.01 µM. Besides, the ED50 in test [3] worked out at 0.11 µg/kg.
Take `Cc1[nH]cnc1CN1CCc2c(c3ccccc3n2C)C1=O.Cl` [Allosetron hydrochloride, 2,3,4,5-tetrahydro-5-methyl-2-[(5-methyl-1H-imidazol-4-yl)methyl]-1H-pyrido[4,3-b]indol-1-one hydrochloride]: the “M (×10^-9 Mole)” value in test [1] was 21 ×10^-9 Mole. In addition, in test [1] (setting [5]), the Kb is 0.02 µM. Also, the ED50 in test [3] was 0.28 µg/kg.
Regarding `Cc1[nH]cnc1CN1CCc2c(c3cccc4c3n2C(c2ccccc2)CC4)C1=O.Cl` (stereo not drawn) [Compound 1, 5,6,8,9,10,11-hexahydro-10-[(5-methyl-1H-imidazol-4-yl)methyl]-6-phenyl-11-oxo-4H-pyrido[3',4':4,5]pyrrolo[3,2,1-ij] quinoline hydrochloride], the “No. of animals with diarrhea / No. of animals used” value in test [2] (setting [6]) is on record as 5/10. In addition, the inhibition at 0.01 mg/kg in test [2] is 50%. For the same molecule, in test [1] (from Tests 1 and 2 (colon vs heart), vs Allosetron), the “selectivity for colonic 5-HT3 receptors relative to Allosetron” value is on record as “about 90 times”. Moreover, the “selectivity for colonic 5-HT3 receptors relative to Ondansetron” value in test [1] (from Tests 1 and 2 (colon vs heart), vs Ondansetron) is on record as “about 125 times”. The “selectivity for colonic 5-HT3 receptors relative to YM-060” value in test [1] (from Tests 1 and 2 (colon vs heart), vs YM-060) is “about 190 times”. Further, in test [1] (from Tests 1 and 2 (colon vs heart), vs compound A), the “selectivity for colonic 5-HT3 receptors relative to compound A” value is listed as “about 100 times”. Moreover, in test [1], the “M (×10^-9 Mole)” value is given as 0.41 ×10^-9 Mole. The same molecule gave a Kb in test [1] (setting [5]) of 0.000398 µM. Further, the “activity on the heart receptors relative to Ondansetron” value in test [3] (BJ reflex ID50 ratio, vs Ondansetron) was “about 4 times”. Moreover, the “activity on the heart receptors relative to YM-060” value in test [3] (BJ reflex ID50 ratio, vs YM-060) is “about 1/19”. Further, the ED50 in test [3] is 0.5 µg/kg.
For the molecule `Cc1nccn1CC1CCc2c(c3ccccc3n2C)C1=O` (stereo not drawn) [Ondansetron hydrochloride, 1,2,3,4-tetrahydro-9-methyl-3-[(2-methyl-1H-imidazol-1-yl)methyl]-4H-carbazol-4-one hydrochloride dihydrate], in test [4], the “suppression of stress-related diarrhea” value was “suppress stress-related diarrhea in animal models”. Further, the “M (×10^-9 Mole)” value in test [1] was 227 ×10^-9 Mole. The molecule also gave a Kb in test [1] (setting [5]) of 0.251 µM. Besides, the ED50 in test [3] was determined as 2 µg/kg.
In the case of `Cc1[nH]cnc1CN1CCc2c(c3cccc4c3n2-c2ccccc2CC4)C1=O` [G, 3-[(4-methyl-1-H-imidazol-5-yl)methyl]-1,2,3,4,8,9-hexahydro-pyrido[4',3':2,3]indolo[1,7a,7-ab][1]benzazepin-4-one], the “M (×10^-9 Mole)” value in test [1] is >10 ×10^-9 Mole. In test [1] (setting [5]), this molecule returned an antagonist equilibrium constant (Kb) of over 0.01 µM.
Turning to `Cl.Cn1cc(C(=O)[C@@H]2CCc3nc[nH]c3C2)c2ccccc21` [YM-060, (R)-(-)-5-[(1-methylindol-3-yl)carbonyl]-4,5,6,7-tetrahydrobenzimidazole hydrochloride], the “No. of animals with diarrhea / No. of animals used” value in test [2] (setting [6]) was 7/10. Further, the inhibition at 0.01 mg/kg in test [2] (10μg/kg orally one hour prior to stress cage, inhibition of diarrhea) was 30%. The “suppression of stress-related diarrhea” value in test [4] was “suppress stress-related diarrhea in animal models”. Besides, the “M (×10^-9 Mole)” value in test [1] was 4.5 ×10^-9 Mole. Further, the antagonist equilibrium constant (Kb) in test [1] (setting [5]) was 0.00398 µM.
For the molecule `CN1C2CCCC1CC(NC(=O)c1nn(C)c3ccccc13)C2` (stereo not drawn) [Granisetron, N-(endo-9-methyl-9-azabicyclo[3,3,1]non-3-yl)-1-methylindazol-3-carboxamide hydrochloride], the “suppression of stress-related diarrhea” value in test [4] was “suppress stress-related diarrhea in animal models”.
Take `Cc1[nH]cnc1CN1CCCc2c(c3cccc4c3n2CC4)C1=O` [D, 4,5,7,8,9,10-hexahydro-10-[(5-methyl-1H-imidazol-4-yl)methyl]-11H-azepino[4,3-b]pyrrolo[3,2,1-hi]indol-11-one]: the “M (×10^-9 Mole)” value in test [1] is recorded as >10 ×10^-9 Mole. The Kb in test [1] (setting [5]) was over 0.01 µM.
In the case of `Cc1[nH]cnc1CN1CCCc2c(c3cccc4c3n2CCC4)C1=O` [F, 11-[(5-methyl-1H-imidazol-4-yl)methyl]-5,6,9,10,11,12-hexahydro-4H,8H-azepino[3',4':4,5]pyrrolo[3,2,1-ij]quinolin-12-one], in test [1], the “M (×10^-9 Mole)” value is >10 ×10^-9 Mole. The same molecule returned an antagonist equilibrium constant (Kb) in test [1] (setting [5]) of over 0.01 µM.
As a reminder, the pA2 is a measure of antagonist potency on a negative log scale. A lower pA2 goes with lower antagonist potency. `Cc1[nH]cnc1CN1CCc2c(c3cccc4c3n2CCCC4)C1=O` [E] registered a pA2 in test [1] (isolated guinea pig distal colon, contraction induced by 2-methylserotonin) of under 8.0. In addition, the “M (×10^-9 Mole)” value in test [1] is given as >10 ×10^-9 Mole.
Take `Cc1[nH]cnc1CN1CCc2c(c3cccc4c3n2CCO4)C1=O` [C, 1,2,9,10-tetrahydro-8-[(5-methyl-1H-imidazol-4-yl)methyl]pyrido[3',4':4,5]pyrrolo[1,2,3-de][1,4]benzoxadin-7(8H)-one]: the “M (×10^-9 Mole)” value in test [1] is >10 ×10^-9 Mole. Besides, the Kb in test [1] (setting [5]) is over 0.01 µM.
On to `O=C1c2c(n3c4c(cccc24)CCC3)CCN1C1CN2CCC1CC2` (stereo not drawn) [I, 10-(1-azabicyclo-[2,2,2]oct-3-yl)-5,6,8,9,10,11-hexahydro-4H-pyrido[3',4':4,5]pyrrolo[3,2,1-ij]quinolin-11-one], for which the “M (×10^-9 Mole)” value in test [1] is >10 ×10^-9 Mole. The Kb in test [1] (setting [5]) was over 0.01 µM.
For `Cc1[nH]cnc1CN1CCc2c(c3cccc4c3n2CC4)C1=O` [B, 4,5,7,8-tetrahydro-9-[(5-methyl-1H-imidazol-4-yl)methyl]-pyrido[4,3-b]pyrrolo[3,2,1-hi]indol-10(9H)-one], in that order: 10 ×10^-9 Mole and over 0.01 µM.
